# Laboratory results published in patent publication US20220169628A1 (University of Florida Research Foundation, Incorporated, priority 2019, published 2022).
# Tests used:
# [1] = test system: RS4;11 cells; assay: Cell viability assay, MTS, 48 h, RS4;11; type: cell-based; details: Homo sapiens, RS4-11, 48 h, 48 hours, read-out: IC50 (48 hours) RS4;11
# Description: (§1) Acute lymphoblastic leukemia cells (MOLT-4 and RS4; 11) or small cell lung cancer (NCI-H146 or simply H146) were incubated with increasing concentrations of Bcl-xL degraders for 48 h. Cell viability was measured by tetrazolium-based MTS assay.
# [2] = test system: MOLT-4 cells; assay: Cell viability assay, MTS, 48 h, MOLT-4; type: cell-based; details: Homo sapiens, MOLT-4, 48 h, 48 hours, read-out: IC50 (48 hours) MOLT-4
# Description: as §1
SMILES,IC50 [1] [nM],IC50 [2] [nM]
"Cc1ncsc1-c1ccc([C@H](C)NC(=O)[C@@H]2C[C@@H](O)CN2C(=O)[C@@H](NC(=O)CCCCCC(=O)N2CCCN(CC3(C)CCC(c4ccc(Cl)cc4)=C(CN4CCN(c5ccc(C(=O)NS(=O)(=O)c6ccc(N[C@H](CCN7CCOCC7)CSc7ccccc7)c(S(=O)(=O)C(F)(F)F)c6)cc5)CC4)C3)CC2)C(C)(C)C)cc1 (stereo partly drawn) [degrader #21, (2S,4R)-1-((2S)-2-(7-(4-((4′-chloro-4-methyl-6-((4-(4-(((4-(((R)-4-morpholino-1-(phenylthio)butan-2-yl)amino)-3-((trifluoromethyl)sulfonyl)phenyl)sulfonyl)carbamoyl)phenyl)piperazin-1-yl)methyl)-2,3,4,5-tetrahydro-[1,1′-biphenyl]-4-yl)methyl)-1,4-diazepan-1-yl)-7-oxoheptanamido)-3,3-dimethylbutanoyl)-4-hydroxy-N—((S)-1-(4-(4-methylthiazol-5-yl)phenyl)ethyl)pyrrolidine-2-carboxamide]",< 50,50 to 150
"Cc1ncsc1-c1ccc([C@H](C)NC(=O)[C@@H]2C[C@@H](O)CN2C(=O)[C@@H](NC(=O)CCCCCCC(=O)N2CCC3(CCN(CC4(C)CCC(c5ccc(Cl)cc5)=C(CN5CCN(c6ccc(C(=O)NS(=O)(=O)c7ccc(N[C@H](CCN8CCOCC8)CSc8ccccc8)c(S(=O)(=O)C(F)(F)F)c7)cc6)CC5)C4)CC3)CC2)C(C)(C)C)cc1 (stereo partly drawn) [degrader #29, (2S,4R)-1-((2S)-2-(8-(9-((4′-chloro-4-methyl-6-((4-(4-(((4-(((R)-4-morpholino-1-(phenylthio)butan-2-yl)amino)-3-((trifluoromethyl)sulfonyl)phenyl)sulfonyl)carbamoyl)phenyl)piperazin-1-yl)methyl)-2,3,4,5-tetrahydro-[1,1′-biphenyl]-4-yl)methyl)-3,9-diazaspiro[5.5]undecan-3-yl)-8-oxooctanamido)-3,3-dimethylbutanoyl)-4-hydroxy-N—((S)-1-(4-(4-methylthiazol-5-yl)phenyl)ethyl)pyrrolidine-2-carboxamide]",< 50,< 50
"Cc1ncsc1-c1ccc([C@H](C)NC(=O)[C@@H]2C[C@@H](O)CN2C(=O)[C@@H](NC(=O)CCCCCC(=O)NC2CCN(CC3(C)CCC(c4ccc(Cl)cc4)=C(CN4CCN(c5ccc(C(=O)NS(=O)(=O)c6ccc(N[C@H](CCN7CCOCC7)CSc7ccccc7)c(S(=O)(=O)C(F)(F)F)c6)cc5)CC4)C3)CC2)C(C)(C)C)cc1 (stereo partly drawn) [degrader #37, N1-(1-((4′-chloro-4-methyl-6-((4-(4-(((4-(((R)-4-morpholino-1-(phenylthio)butan-2-yl)amino)-3-((trifluoromethyl)sulfonyl)phenyl)sulfonyl)carbamoyl)phenyl)piperazin-1-yl)methyl)-2,3,4,5-tetrahydro-[1,1′-biphenyl]-4-yl)methyl)piperidin-4-yl)-N7-((S)-1-((2S,4R)-4-hydroxy-2-(((S)-1-(4-(4-methylthiazol-5-yl)phenyl)ethyl)carbamoyl)pyrrolidin-1-yl)-3,3-dimethyl-1-oxobutan-2-yl)heptanediamide]",< 50,150 to 500
"Cc1ncsc1-c1ccc([C@H](C)NC(=O)[C@@H]2C[C@@H](O)CN2C(=O)[C@@H](NC(=O)CCCCCCC(=O)NC2CCN(CC3(C)CCC(c4ccc(Cl)cc4)=C(CN4CCN(c5ccc(C(=O)NS(=O)(=O)c6ccc(N[C@H](CCN7CCOCC7)CSc7ccccc7)c(S(=O)(=O)C(F)(F)F)c6)cc5)CC4)C3)CC2)C(C)(C)C)cc1 (stereo partly drawn) [degrader #38, N1-(1-((4′-chloro-4-methyl-6-((4-(4-(((4-(((R)-4-morpholino-1-(phenylthio)butan-2-yl)amino)-3-((trifluoromethyl)sulfonyl)phenyl)sulfonyl)carbamoyl)phenyl)piperazin-1-yl)methyl)-2,3,4,5-tetrahydro-[1,1′-biphenyl]-4-yl)methyl)piperidin-4-yl)-N8-((S)-1-((2S,4R)-4-hydroxy-2-(((S)-1-(4-(4-methylthiazol-5-yl)phenyl)ethyl)carbamoyl)pyrrolidin-1-yl)-3,3-dimethyl-1-oxobutan-2-yl)octanediamide]",< 50,50 to 150

# The next lines start with the values.
IC50 [1] [nM],IC50 [2] [nM],SMILES
< 50,50 to 150,"Cc1ncsc1-c1ccc([C@H](C)NC(=O)[C@@H]2C[C@@H](O)CN2C(=O)[C@@H](NC(=O)CCCCC(=O)N2CC3(CCN(CC4(C)CCC(c5ccc(Cl)cc5)=C(CN5CCN(c6ccc(C(=O)NS(=O)(=O)c7ccc(N[C@H](CCN8CCOCC8)CSc8ccccc8)c(S(=O)(=O)C(F)(F)F)c7)cc6)CC5)C4)CC3)C2)C(C)(C)C)cc1 (stereo partly drawn) [degrader #30, (2S,4R)-1-((2S)-2-(6-(7-((4′-chloro-4-methyl-6-((4-(4-(((4-(((R)-4-morpholino-1-(phenylthio)butan-2-yl)amino)-3-((trifluoromethyl)sulfonyl)phenyl)sulfonyl)carbamoyl)phenyl)piperazin-1-yl)methyl)-2,3,4,5-tetrahydro-[1,1′-biphenyl]-4-yl)methyl)-2,7-diazaspiro[3.5]nonan-2-yl)-6-oxohexanamido)-3,3-dimethylbutanoyl)-4-hydroxy-N—((S)-1-(4-(4-methylthiazol-5-yl)phenyl)ethyl)pyrrolidine-2-carboxamide]"
< 50,50 to 150,"Cc1ncsc1-c1ccc([C@H](C)NC(=O)[C@@H]2C[C@@H](O)CN2C(=O)[C@@H](NC(=O)CCCCCC(=O)N2CC3(CCN(CC4(C)CCC(c5ccc(Cl)cc5)=C(CN5CCN(c6ccc(C(=O)NS(=O)(=O)c7ccc(N[C@H](CCN8CCOCC8)CSc8ccccc8)c(S(=O)(=O)C(F)(F)F)c7)cc6)CC5)C4)CC3)C2)C(C)(C)C)cc1 (stereo partly drawn) [degrader #31, (2S,4R)-1-((2S)-2-(7-(7-((4′-chloro-4-methyl-6-((4-(4-(((4-(((R)-4-morpholino-1-(phenylthio)butan-2-yl)amino)-3-((trifluoromethyl)sulfonyl)phenyl)sulfonyl)carbamoyl)phenyl)piperazin-1-yl)methyl)-2,3,4,5-tetrahydro-[1,1′-biphenyl]-4-yl)methyl)-2,7-diazaspiro[3.5]nonan-2-yl)-7-oxoheptanamido)-3,3-dimethylbutanoyl)-4-hydroxy-N—((S)-1-(4-(4-methylthiazol-5-yl)phenyl)ethyl)pyrrolidine-2-carboxamide]"
< 50,50 to 150,"Cc1ncsc1-c1ccc([C@H](C)NC(=O)[C@@H]2C[C@@H](O)CN2C(=O)[C@@H](NC(=O)CCCCCCC(=O)N2CC3(CCN(CC4(C)CCC(c5ccc(Cl)cc5)=C(CN5CCN(c6ccc(C(=O)NS(=O)(=O)c7ccc(N[C@H](CCN8CCOCC8)CSc8ccccc8)c(S(=O)(=O)C(F)(F)F)c7)cc6)CC5)C4)CC3)C2)C(C)(C)C)cc1 (stereo partly drawn) [degrader #32, (2S,4R)-1-((2S)-2-(8-(7-((4′-chloro-4-methyl-6-((4-(4-(((4-(((R)-4-morpholino-1-(phenylthio)butan-2-yl)amino)-3-((trifluoromethyl)sulfonyl)phenyl)sulfonyl)carbamoyl)phenyl)piperazin-1-yl)methyl)-2,3,4,5-tetrahydro-[1,1′-biphenyl]-4-yl)methyl)-2,7-diazaspiro[3.5]nonan-2-yl)-8-oxooctanamido)-3,3-dimethylbutanoyl)-4-hydroxy-N—((S)-1-(4-(4-methylthiazol-5-yl)phenyl)ethyl)pyrrolidine-2-carboxamide]"
